The test system of one experiment is PC-3. The experiment in a line: Antiproliferative activity against human PC3 cells overexpressing FAK assessed as reduction in cell viability after 72 hrs by MTS assay. Conditions: PC-3, 72 h. (In general: Tetrazolium dyes change colour on reduction, which living cells bring about.)
In another experiment the test system is MCF7. The experiment in a line: Antiproliferative activity against human MCF7 cells overexpressing FAK assessed as reduction in cell viability after 72 hrs by MTS assay. Particulars: MCF7, 72 h.
For the next experiment, the system named is HCT-116. In words: Antiproliferative activity against human HCT116 cells overexpressing FAK assessed as reduction in cell viability after 72 hrs by MTS assay. Conditions: HCT-116, 72 h.
The subject of another experiment is U-87 MG. In words: Antiproliferative activity against human U87MG cells overexpressing FAK assessed as reduction in cell viability after 72 hrs by MTS assay.
The subject of another experiment is MCF-10A. In words: Cytotoxicity against human MCF10A cells assessed as reduction in cell viability after 72 hrs by MTS assay.

pIC50: −log10 of the molar value.

The term pIC50 denotes the negative decadic logarithm of the IC50, by convention in mol/L. Turning to `CNC(=O)c1ccccc1Nc1nc(Nc2ccc(C(=O)N3CCN(C(=S)SCCc4ccccc4)CC3)cc2)ncc1Cl`, the pIC50 in the experiment with PC-3 was less than 4.70; in the experiment on MCF7, 4.93; with HCT-116 it was 5.42; in the experiment on U-87 MG, less than 4.70.

Regarding `CNC(=O)c1ccccc1Nc1nc(Nc2ccc(C(=O)N3CCN(C(=S)SCCS(C)(=O)=O)CC3)cc2)ncc1Cl`, the pIC50 is 6.28 in the experiment on PC-3, 6.40 in the experiment on MCF7, 7.52 with HCT-116 and 6.04 with U-87 MG.

On to `CCOC(=O)C(=O)CSC(=S)N1CCN(C(=O)c2ccc(Nc3ncc(Cl)c(Nc4ccccc4C(=O)NC)n3)cc2)CC1`, for which the pIC50 was 6.33 in the experiment with PC-3, 6.28 in the experiment on MCF7, 7.22 in the experiment on HCT-116 and 5.94 with U-87 MG.

For `CNC(=O)c1ccccc1Nc1nc(Nc2ccc(C(=O)N3CCN(C(=S)SCCN(C)C)CC3)cc2)ncc1Cl`, the pIC50 in the experiment with PC-3 was 7.05; with MCF7, 7.05 to 7.10; in the experiment with HCT-116, 8.40; in the experiment with MCF-10A, 6.14; in the experiment with U-87 MG, 6.44 to 6.70.

For the molecule `CNC(=O)c1ccccc1Nc1nc(Nc2ccc(C(=O)N3CCN(C(=S)SCC4CCOCC4)CC3)cc2)ncc1Cl`, the pIC50 with PC-3 is 6.51; with MCF7 it was 6.27; in the experiment with HCT-116, 7.05; with U-87 MG it was less than 4.70.

`CNC(=O)c1ccccc1Nc1nc(Nc2ccc(C(=O)N3CCN(C(=S)SCCN(C)C)CC3)cc2)ncc1C`: the pIC50 was 6.57 in the experiment with PC-3; 7.10 with MCF7; 8.00 in the experiment on HCT-116; 5.97 in the experiment on MCF-10A; 6.55 with U-87 MG.

Regarding `CNC(=O)c1ccccc1Nc1nc(Nc2ccc(C(=O)N3CCN(C(=S)SCC(C)O)CC3)cc2)ncc1Cl` (stereo not given), the pIC50 was 6.70 in the experiment on PC-3, 6.96 in the experiment with MCF7, 7.52 in the experiment with HCT-116 and 6.06 in the experiment on U-87 MG.

For the molecule `C=CCSC(=S)N1CCN(C(=O)c2ccc(Nc3ncc(Cl)c(Nc4ccccc4C(=O)NC)n3)cc2)CC1`, the pIC50 in the experiment on PC-3 is 5.99; in the experiment on MCF7, 5.86; with HCT-116, 6.96; in the experiment on U-87 MG, less than 4.70.

For the molecule `CNC(=O)c1ccccc1Nc1nc(Nc2ccc(C(=O)N3CCN(C(=S)SCCN(C)C)CC3)cc2)ncc1F`, the negative logarithm of the IC50 (pIC50) is 6.44 with PC-3; 6.80 in the experiment with MCF7; 7.52 in the experiment with HCT-116; 5.76 in the experiment on MCF-10A; 6.16 with U-87 MG.

Turning to `CNC(=O)c1ccccc1Nc1nc(Nc2ccc(C(=O)N3CCN(C(=S)SCCN4CCN(C)CC4)CC3)cc2)ncc1Cl`, the pIC50 with PC-3 is 6.59; in the experiment with MCF7, 6.66; with HCT-116, 8.00; in the experiment with U-87 MG, 6.21.

In the case of `CNC(=O)c1ccccc1Nc1nc(Nc2ccc(C(=O)N3CCN(C(=S)SCCOC)CC3)cc2)ncc1Cl`, the pIC50 with PC-3 is 6.34; in the experiment with MCF7 it was 6.52; in the experiment on HCT-116, 7.40; in the experiment on U-87 MG, 6.21.

Turning to `CNC(=O)c1ccccc1Nc1nc(Nc2ccc(C(=O)N3CCN(C(=S)SCc4ccccn4)CC3)cc2)ncc1Cl`, the pIC50 in the experiment with PC-3 is 6.40; with MCF7 it was 6.41; in the experiment with HCT-116 it was 7.22; in the experiment on U-87 MG, 5.60.

In the case of `CNC(=O)c1ccccc1Nc1nc(Nc2ccc(C(=O)N3CCN(C(=S)SCCC#N)CC3)cc2)ncc1Cl`, the pIC50 was 6.77 in the experiment with PC-3, 5.14 in the experiment on MCF7, 7.52 with HCT-116 and 5.76 in the experiment with U-87 MG.

As for `CNC(=O)c1ccccc1Nc1nc(Nc2ccc(C(=O)N3CCN(C(=S)SCCO)CC3)cc2)ncc1Cl`, the pIC50 was 6.62 with PC-3, 6.96 with MCF7, 7.70 in the experiment on HCT-116 and 6.15 in the experiment with U-87 MG.

As for `CNC(=O)c1ccccc1Nc1nc(Nc2ccc(N3CCOCC3)cc2OC)ncc1Cl`, the pIC50 in the experiment with PC-3 is 5.77 to 5.92; in the experiment with MCF7, 6.25 to 6.35; in the experiment on HCT-116 it was 6.34 to 6.54; in the experiment on MCF-10A, 5.06; in the experiment with U-87 MG it was 5.78 to 5.80.

Consider `CNC(=O)c1ccccc1Nc1nc(Nc2ccc(C(=O)N3CCN(C(=S)SCCN4CCCC4)CC3)cc2)ncc1Cl`, for which the negative-log IC50 (pIC50) in the experiment on PC-3 is 6.66; in the experiment with MCF7 it was 6.80; in the experiment with HCT-116, 8.00; in the experiment on U-87 MG it was 6.70.

On to `CNC(=O)c1ccccc1Nc1nc(Nc2ccc(C(=O)N3CCN(C(=S)SCCC(=O)OC)CC3)cc2)ncc1Cl`, for which the pIC50 with PC-3 was 5.70; in the experiment on MCF7, 5.64; with HCT-116, 6.59; in the experiment on U-87 MG, 5.88.

As for `CNC(=O)c1ccc(Nc2ncc(C(F)(F)F)c(NCc3nccnc3N(C)S(C)(=O)=O)n2)cc1` [DEFACTINIB], the pIC50 in the experiment with PC-3 is less than 4.70; in the experiment on MCF7 it was 5.01 to 5.05; in the experiment on HCT-116 it was 5.52 to 5.58; with MCF-10A it was 4.73; in the experiment with U-87 MG it was 4.99.

On to `CNC(=O)c1ccccc1Nc1nc(Nc2ccc(C(=O)N3CCN(C(=S)SCCC4OCCO4)CC3)cc2)ncc1Cl`, for which the negative logarithm of the IC50 (pIC50) with PC-3 was 6.16; with MCF7 it was 6.68; in the experiment with HCT-116, 7.30; in the experiment with U-87 MG, 5.56.

On to `CCOC(=O)CSC(=S)N1CCN(C(=O)c2ccc(Nc3ncc(Cl)c(Nc4ccccc4C(=O)NC)n3)cc2)CC1`, for which the pIC50 is 5.45 with PC-3, 5.00 with MCF7, 5.33 in the experiment with HCT-116 and 5.12 in the experiment on U-87 MG.

Consider `CNC(=O)c1ccccc1Nc1ccnc(Nc2ccc(C(=O)N3CCN(C(=S)SCCN(C)C)CC3)cc2)n1`, for which the pIC50 in the experiment with PC-3 was 5.52; in the experiment on MCF7, 5.70; with HCT-116 it was 6.36; in the experiment on MCF-10A, 5.21; with U-87 MG it was 5.55.

For `CNC(=O)c1ccccc1Nc1nc(Nc2ccc(C(=O)N3CCN(C(=S)SCc4ccncc4)CC3)cc2)ncc1Cl`, the pIC50 in the experiment on PC-3 was 6.44; in the experiment with MCF7, 6.11; in the experiment with HCT-116, 7.22; in the experiment on U-87 MG it was 5.77.

As for `CNC(=O)c1ccccc1Nc1nc(Nc2ccc(C(=O)N3CCN(C(=S)SCc4cccnc4)CC3)cc2)ncc1Cl`, the pIC50 in the experiment with PC-3 is 6.35; in the experiment with MCF7 it was 6.41; in the experiment on HCT-116, 7.52; in the experiment on U-87 MG, 5.82.

Consider `CNC(=O)c1ccccc1Nc1nc(Nc2ccc(C(=O)N3CCN(C(=S)SCCN(C)C)CC3)cc2)ncc1OC`, for which the pIC50 in the experiment on PC-3 was 6.04; in the experiment on MCF7, 6.44; in the experiment with HCT-116, 6.80; in the experiment with MCF-10A, 5.61; in the experiment with U-87 MG, 5.79.

Turning to `CNC(=O)c1ccccc1Nc1nc(Nc2ccc(C(=O)N3CCN(C(=S)SCc4ccccc4)CC3)cc2)ncc1Cl`, the pIC50 in the experiment with PC-3 was 4.77; with MCF7, less than 4.70; with HCT-116, 7.30; in the experiment on U-87 MG it was 5.47.

`CNC(=O)c1ccccc1Nc1nc(Nc2ccc(C(=O)N3CCN(C(=S)SCCN4CCOCC4)CC3)cc2)ncc1Cl`: the pIC50 in the experiment on PC-3 is 6.64; in the experiment with MCF7, 6.48; in the experiment with HCT-116 it was 5.45; with U-87 MG it was 6.33.

In the case of `CNC(=O)c1ccccc1Nc1nc(Nc2ccc(C(=O)N3CCN(C(=S)SCCN4CCCCC4)CC3)cc2)ncc1Cl`, the negative logarithm of the IC50 (pIC50) with PC-3 is 6.42; with MCF7 it was 6.57; with HCT-116, 8.00; in the experiment with U-87 MG it was 6.55.

These data come from ChEMBL document CHEMBL4350989, “Discovery of 2,4-diarylaminopyrimidine derivatives bearing dithiocarbamate moiety as novel FAK inhibitors with antitumor and anti-angiogenesis activities” (Eur J Med Chem, 2019).
